These results are taken from US5118681A (priority 1989, dated 1992).

For assay [1], the system named is Phytophthora infestans. The experiment in a line: whole plant or invertebrate. The assay is classed as in vivo. The note with it: Phytophthora infestans, in Solanum lycopersicum, 96 h, read-out: % control TLB.
Assay [2] concerns Ps.ae. The experiment in a line: Minimum Inhibitory Concentration Test, alternate (Table 4), Ps.ae. The assay is classed as cell-based, Pseudomonas aerugenosa. The settings on record: Pseudomonas, TSB, 72 hours.
Assay [3] has as its system Candida albicans (C.alb). Description: Minimum Inhibitory Concentration Test, alternate (Table 4), C.alb. Type of assay: cell-based. The note with it: Candida albicans, TSB, 72 hours. How it is done:
(§1) A 125 μl aliquot of 10,000 ppm test compound in acetone was added to 4.88 ml of TSB to provide a 250 ppm solution. From this solution, 100 μL was transferred to the first row of two microtiter plate columns. Both replicates and five additional compounds were all serially diluted 1:1 to a final concentration of 0.8 ppm in TSB.
(§2) Inoculation was accomplished by diluting a 24 hr Ps fl culture, four mls per 36 mls of phosphate buffer solution. A Dynatech autoinoculator was used to transfer 1.5 μl of this cell suspension to the microtiter plates. The plates were incubated at 30° C. for 3 days before the lowest concentration at which no growth occurs was recorded in the database. The SOK data and MIC test data on Ps.fl, Ps.ae, E.c, and S.a. bacteria and Candida albicans (C.alb), A.n and A.p fungi are listed in Table 4.

For assay [4], the system named is Erysiphe graminis (f. sp. tritici). The experiment in a line: whole plant or invertebrate. The note with it: Blumeria graminis; read-out: % control WPM. The assay is classed as in vivo.
The subject of assay [5] is Puccinia recondita (f. sp. tritici Races PKB and PLD). Description: whole plant or invertebrate. Type of assay: in vivo.
In assay [6] the test system is S.a. The experiment in a line: Minimum Inhibitory Concentration Test, alternate (Table 4), S.a. The settings on record: Staphylococcus aureus, TSB, 72 hours. Type of assay: cell-based, Staphylococcus aureus. The protocol: as §1, §2
In assay [7] the test system is Pseudomonas fluorescens. Description: Minimum Inhibitory Concentration Test, alternate (Table 4), Ps.fl. The assay is classed as cell-based. The settings on record: Pseudomonas fluorescens, TSB, 72 hours, 30° C. The protocol:
as §1, §2

Assay [8] concerns A.p. The experiment in a line: Minimum Inhibitory Concentration Test, alternate (Table 4), A.p. The assay is classed as cell-based. The note with it: Aureobasidium pullulans, TSB, 72 hours. How it is done: as §1, §2
Assay [9] deals with Pellicularia filamentosa (f. sp. sasiki). The experiment in a line: whole plant or invertebrate. The assay is classed as in vivo. The settings on record: 120 h; read-out: % control RSB.
For assay [10], the system named is E.c. The experiment in a line: Minimum Inhibitory Concentration Test, alternate (Table 4), E.c. Type of assay: cell-based, Escherichia coli. The settings on record: Escherichia coli, TSB, 72 hours. The protocol:
as §1, §2

For assay [11], the system named is Piricularia oryzae. Description: whole plant or invertebrate. Type of assay: in vivo. The note with it: Pyricularia oryzae, read-out: % control RB.
Assay [12] concerns Pseudoperonospora cubensis. Description: whole plant or invertebrate. The note with it: Pseudoperonospora cubensis, in Cucumis sativus, 168 h; read-out: % control CDM. The assay is classed as in vivo.
Assay [13] concerns A.n. Description: Minimum Inhibitory Concentration Test, alternate (Table 4), A.n. The settings on record: Aspergillus niger, TSB, 72 hours. The assay is classed as cell-based, Aspergillus niger. How it is done: as §1, §2
[14] abbreviates: Puccinia recondita, 240 h; read-out: % control WLR.

≈ marks a conversion by molar mass, not a printed value. Read-outs that look alike come from different tables or passages of the source. Bounds are passed on as bounds.

As a reminder, the MIC is the lowest concentration that inhibits growth of the organism. Lower therefore signals a more susceptible organism. As for `CCCCCCCCNC(=O)/C=C\SC(C(=O)Nc1ccc(OC)c(Cl)c1)C(=O)OCC` (stereo not drawn) [Example 50, N-n-octyl-cis-3-{2-[ethyl-N-(3-chloro-4-methoxyphenyl)malonamido]thio}acrylamide], the pest or weed control at 100 ppm in assay [1] was 0%; in assay [4], 0%; in [5] (setting [14]), 50%; in assay [9], 0%; in assay [11] it was 0%; in assay [12] it was 85%. For the same compound, the MIC in [2] was > 250 µg/mL; in [3], 63 to 250 µg/mL (≈ 130 to 515 µM); in assay [6], > 250 µg/mL; in assay [7], > 250 µg/mL; in assay [8] it was < 2 µg/mL; in [10] it was > 250 µg/mL.
In the case of `CCCCCCCCNC(=O)/C=C\SC(C(=O)NCc1ccccc1Cl)C(=O)OCC` (stereo not drawn) [Example 38, N-n-octyl-cis-3-{2-[ethyl-N-(2-chlorobenzyl)malonamido]thio}acrylamide], the pest or weed control at 100 ppm amounted to 95% in [1]; 0% in [4]; 0% in assay [5] (setting [14]); 0% in [9]; 50% in assay [11]; 99% in assay [12]. Moreover, the values for the minimum inhibitory concentration (MIC) in assay [13] and in assay [7] were 125 to 250 µg/mL (≈ 266 to 533 µM) and > 500 µg/mL, respectively.
For the compound `CCCCCCCCNC(=O)/C=C\SC(C(=O)NCCCCCC)C(=O)OCC` (stereo not drawn) [Example 17, N-n-octyl-cis-3-[2-(ethyl-N-n-hexylmalonamido)thio]acrylamide], the pest or weed control at 200 ppm in assay [1] was 90%; in [4] it was 0%; in assay [5] (setting [14]) it was 75%; in [9] it was 0%; in [11] it was 0%; in assay [12] it was 100%. In addition, the MIC in assay [13] and in [7] was > 500 µg/mL in each case.
As for `CCCCCCCCNC(=O)/C=C\SC(C(=O)Nc1nccs1)C(=O)OCC` (stereo not drawn) [Example 25, N-n-octyl-cis-3-{2-[ethyl-N-(2-thiazoyl)malonamido]thio}acrylamide], the pest or weed control at 200 ppm in [1] is 80%; in assay [4], 0%; in assay [5] (setting [14]), 75%; in assay [9] it was 50%; in assay [11], 0%; in assay [12], 100%. Also, the MIC in assay [13] and in assay [7] was > 500 µg/mL throughout.
As for `CCCCCCCCNC(=O)/C=C\SC(C(=O)Nc1cc([N+](=O)[O-])ccc1Cl)C(=O)OCC` (stereo not drawn) [Example 45, N-n-octyl-cis-3-{2-[ethyl-N-(2-chloro-5-nitrophenyl)malonamido]thio}acrylamide], the pest or weed control at 100 ppm in assay [1], in assay [4], in assay [9] and in assay [11] was 0% throughout. Moreover, the minimum inhibitory concentration (MIC) in [2] was > 250 µg/mL; in [3] it was 4 µg/mL (≈ 8 µM); in [13] it was 4 to 8 µg/mL (≈ 8 to 16 µM); in assay [6], 63 µg/mL (≈ 126 µM); in [7], > 250 µg/mL; in [8], < 2 µg/mL. The MIC in assay [10] is > 250 µg/mL. For the same compound, the pest or weed control at 25 ppm in assay [5] (setting [14]) was 50%.
Take `CCCCCCCCNC(=O)/C=C\SC(C(=O)NCc1cccc(OC)c1)C(=O)OCC` (stereo not drawn) [Example 32, N-n-octyl-cis-3-{2-[ethyl-N-(3-methoxybenzyl)malonamido]thio}acrylamide]: the pest or weed control at 200 ppm in assay [1] was 100%; in assay [4], 0%; in assay [5] (setting [14]), 75%; in assay [9] it was 0%; in [11], 95%; in assay [12], 99%. Besides, the results for the MIC in assay [13] and in assay [7] were 500 µg/mL (≈ 1080 µM) and > 500 µg/mL, respectively.
For the compound `CCCCCCCCNC(=O)/C=C\SC(C(=O)NCc1cccc([N+](=O)[O-])c1)C(=O)OCC` (stereo not drawn) [Example 65, N-n-octyl-cis-3-{2-[ethyl-N-(3-nitrobenzyl)malonamido]thio}acrylamide], the pest or weed control at 100 ppm in [1] is 80%; in [4], 0%; in [5] (setting [14]), 50%; in assay [9] it was 0%; in [11], 0%; in assay [12] it was 100%. In addition, the MIC in assay [13] and in [7] was > 250 µg/mL throughout.
As to `CCCCCCCCNC(=O)/C=C\SC(C(=O)NCc1ccc(Cl)cc1)C(=O)OCC` (stereo not drawn) [Example 22, N-n-octyl-cis-3-{2-[ethyl-N-(4-chlorobenzyl)malonamido]thio}acrylamide], the pest or weed control at 100 ppm in assay [1] was 99%. Moreover, the MIC in assay [13] and in [7] was > 500 µg/mL each time. The pest or weed control at 200 ppm is 37% in [4]; 50% in assay [5] (setting [14]); 0% in [9]; 90% in assay [11]; 100% in assay [12].
As for `CCCCCCCCNC(=O)/C=C\SC(C(=O)NCc1cccc(C)c1)C(=O)OCC` (stereo not drawn) [Example 40, N-n-octyl-cis-3-{2-[ethyl-N-(3-methylbenzyl)malonamido]thio}acrylamide], the pest or weed control at 100 ppm in [1] was 100%; in assay [4] it was 0%; in assay [5] (Puccinia recondita, 240 h, read-out: % control WLR), 75%; in [9], 0%; in [11], 50%; in assay [12], 99%. For the same compound, the MIC in assay [13] is 125 to 250 µg/mL (≈ 279 to 557 µM); in [7], > 500 µg/mL.
In the case of `CCCCCCCCNC(=O)/C=C\SC(C(=O)NCc1ccc(C)cc1)C(=O)OCC` (stereo not drawn) [Example 33, N-n-octyl-cis-3-{2-[ethyl-N-(4-methylbenzyl)malonamido]thio}acrylamide], the pest or weed control at 200 ppm was found to be 95% in assay [1]; 0% in [4]; 0% in assay [5] (setting [14]); 0% in assay [9]; 90% in [11]; 99% in assay [12]. Besides, the MIC is 250 to 500 µg/mL (≈ 557 to 1110 µM) in assay [13] and > 500 µg/mL in assay [7].
In the case of `CCCCCCCCNC(=O)/C=C\SC(C(=O)Nc1c(C)cccc1Cl)C(=O)OCC` (stereo not drawn) [Example 59, N-n-octyl-cis-3-{2-[ethyl-N-(2-chloro-6-methylphenyl)malonamido]thio}acrylamide], the pest or weed control at 100 ppm is 95% in assay [1]; 0% in assay [4]; 50% in assay [5] (setting [14]); 0% in assay [9]; 50% in assay [11]; 99% in [12]. The values for the minimal inhibitory concentration (MIC) in assay [13] and in assay [7] were 250 µg/mL (≈ 533 µM) and > 250 µg/mL, respectively.
`CCCCCCCCNC(=O)/C=C\SC(C(=O)Nc1ncccn1)C(=O)OCC` (stereo not drawn) [Example 62, N-n-octyl-cis-3-{2-[ethyl-N-(2-pyrimidinyl)malonamido]thio}acrylamide]: the pest or weed control at 100 ppm in assay [1] stood at 0%; in assay [4] it was 0%; in assay [5] (setting [14]), 0%; in [9], 0%; in [11] it was 0%; in [12] it was 85%. Further, the MIC in assay [13] and in [7] was > 250 µg/mL throughout.
Regarding `CCCCCCCCNC(=O)/C=C\SC(C(=O)Nc1ccc(Cl)c(Cl)c1)C(=O)OCC` (stereo not drawn) [Example 52, N-n-octyl-cis-3-{2-[ethyl-N-(3,4-dichlorophenyl)malonamido]thio}acrylamide], the pest or weed control at 100 ppm came out at 80% in assay [1]; 0% in assay [4]; 0% in assay [5] (setting [14]); 0% in assay [9]; 80% in assay [11]; 99% in assay [12]. Also, the MIC in assay [13] and in assay [7] was > 500 µg/mL throughout.
Regarding `CCCCCCCCNC(=O)/C=C\SC(C(=O)Nc1cccc(OC)c1)C(=O)OCC` (stereo not drawn) [Example 23, N-n-octyl-cis-3-{2-[ethyl-N-(3-methoxyphenyl)malonamido]thio}acrylamide], the pest or weed control at 200 ppm turned out to be 100% in [1]; 47% in assay [4]; 50% in assay [5] (setting [14]); 0% in assay [9]; 50% in assay [11]; 92% in [12]. The minimum inhibitory concentration (MIC) in assay [13] and in [7] was > 500 µg/mL each time.
